Test results: US11542233B2, “Compounds, compositions and methods of use” (Aquinnah Pharmaceuticals, Inc., priority 2016, dated 2023)
pIC50: −log10 of the molar value.

Tested on: TDP-43 aggregation in PC12 cells stably expressing GFP-tagged mutant TDP-43 (TDP-43^Q33IK::eGFP)
Assay: In vitro efficacy assay: inhibition of TDP-43 inclusions, concentration-response, fluorescence microscopy
Format: cell-based
Conditions: Rattus norvegicus, PC-12, PC12 cells, 1 hour pre-treatment, 15 μM sodium arsenite for 23 hours, 10-point dose response curve
Method: Exemplary compounds of the invention were evaluated for efficacy in inhibiting TDP-43 inclusions using a concentration-response assay. Briefly, PC12 cells stably expressing a GFP-tagged mutant form of TDP-43 (TDP-43^Q33IK::eGFP) were pre-treated for 1 hour with exemplary compounds and stressed with 15 μM sodium arsenite for 23 hours to induce TDP-43 aggregation. The inhibitory effect on TDP-43 aggregation was measured using fluorescence microscopy. The ratio of cells with TDP-43 aggregates was calculated based on the total number of cells with detectable GFP expression. In the table, “A” indicates an IC50 of less than 100 nM, “B” indicates an IC50 range from 100 nM to 500 nM; “C” indicates an IC50 range from 500 nM to 2 μM; and “D” indicates an IC50 greater than 2 μM.

Row | SMILES | pIC50
1 | CCN(C(=O)c1cc2cc(S(C)(=O)=O)ccc2[nH]1)[C@H]1CCC[C@@H](NCc2ccccc2)C1 [Compound 546] | 6.30 to 7.00
2 | O=C(c1cc2ccccc2[nH]1)N(CC(F)(F)F)[C@H]1CCC[C@H](NCc2ccccc2)C1 [Compound 178] | 5.70 to 6.30
3 | CCN(C(=O)c1cc2ncccc2[nH]1)[C@H]1CCC[C@@H](NCc2cc(C(C)C)no2)C1 [Compound 470] | > 7.00
4 | O=C(c1cc2ccccc2[nH]1)N(CC(F)(F)F)[C@H]1CCC[C@H](NCc2cccc(F)c2)C1 [Compound 172, N-((1S,3S)-3-((3-fluorobenzyl)amino)cyclohexyl)-N-(2,2,2-trifluoroethyl)-1H-indole-2-carboxamide] | 5.70 to 6.30
5 | CCN(C(=O)c1cc2cc(C3CC3)ccc2[nH]1)[C@H]1CCC[C@@H](NCc2ccccc2)C1 [Compound 543] | > 7.00
6 | CCN(C(=O)c1cc2ccccc2[nH]1)[C@H]1CCC[C@H](NCc2cccc(F)c2)C1 [Compound 107, N-ethyl-N-((1S,3S)-3-((3-fluorobenzyl)amino)cyclohexyl)-1H-indole-2-carboxamide] | 5.70 to 6.30
7 | O=C(c1cc2ccccc2[nH]1)N(CC(F)(F)F)[C@H]1COC[C@@H](NCc2ccccc2)C1 [Compound 302] | 6.30 to 7.00
8 | CCN(C(=O)c1nc2cc(C#N)ccc2[nH]1)[C@H]1CCC[C@@H](NCc2ccc3ocnc3c2)C1 [Compound 529] | > 7.00
9 | O=C(c1cc2ccccc2[nH]1)N(CC(F)(F)F)[C@H]1CCC[C@H](NCc2ccncc2)C1 [Compound 176] | < 5.70
10 | CCN(C(=O)c1cc2cc(F)ccc2[nH]1)[C@H]1CCC[C@@H](NCc2cccc(F)c2)C1 [Compound 549] | > 7.00
11 | CCN(C(=O)c1cc2ccccc2[nH]1)[C@H]1CCC[C@H](NCC2CCOCC2)C1 [Compound 119] | > 7.00
12 | CCN(C(=O)c1cc2ccccc2[nH]1)[C@H]1CCC[C@@H](NCCC2CC2)C1 [Compound 117] | > 7.00
13 | CCN(C(=O)c1nc2cc(C#N)ccc2[nH]1)[C@H]1CCC[C@@H](NCc2oc3ccccc3c2C)C1 [Compound 518] | > 7.00
14 | CCN(C(=O)c1cc2ccccc2[nH]1)[C@H]1CCC[C@H](N2CCc3ccccc3C2)C1 [Compound 116] | 5.70 to 6.30
15 | CCN(C(=O)c1cc2cc(F)ccc2[nH]1)[C@H]1CCC[C@@H](NCc2cc3ccccc3o2)C1 [Compound 550] | > 7.00
16 | CCN(C(=O)c1cc2c([nH]1)CC(C)(C)OC2)[C@H]1CCC[C@@H](NCc2ccccc2)C1 [Compound 502, N-((1S,3R)-3-(benzylamino)cyclohexyl)-N-ethyl-6,6-dimethyl-1,4,6,7-tetrahydropyrano[4,3-b]pyrrole-2-carboxamide] | 5.70 to 6.30
17 | CCN(C(=O)c1cc2ccccc2[nH]1)C1CCC[C@H](N[C@H]2CCc3ccccc32)C1 (stereo partly shown) [Compound 509] | < 5.70
18 | CCN(C(=O)c1cc2ccccc2[nH]1)[C@H]1CCC[C@@H](N[C@@H]2CCc3ccccc32)C1 [Compound 121] | < 5.70
19 | CCN(C(=O)c1cc2ccccc2[nH]1)[C@H]1CCC[C@@H](NCc2cccc(Cl)c2)C1 [Compound 134] | > 7.00
20 | CCN(C(=O)c1cc2ncccc2[nH]1)[C@H]1CCC[C@@H](NCc2cc(C3CC3)no2)C1 [Compound 435] | > 7.00
21 | CCN(C(=O)c1nc2cc(C#N)ccc2[nH]1)[C@H]1CCC[C@@H](NCc2ccc(F)cc2)C1 [Compound 519] | > 7.00
22 | CCN(C(=O)c1nc2ccccc2[nH]1)[C@H]1CCC[C@@H](NCc2ccc3oc(C)nc3c2)C1 [Compound 531] | 6.30 to 7.00

Row | SMILES | pIC50
23 | CCN(C(=O)c1cc2ccccc2[nH]1)[C@H]1CCC[C@@H](NCc2ccc(O)cc2)C1 [Compound 428] | > 7.00
24 | CCN(C(=O)c1cc2ccccc2[nH]1)[C@@H]1C[C@H](NCc2ccccc2)CS(=O)(=O)C1 [Compound 313, N-((3R,5S)-5-(benzylamino)-1,1-dioxidotetrahydro-2H-thiopyran-3-yl)-N-ethyl-1H-indole-2-carboxamide] | < 5.70
25 | O=C(c1cc2ccccc2[nH]1)N(CC(F)(F)F)[C@H]1CCC[C@H](NCc2ccc(F)cc2)C1 [Compound 180] | 5.70 to 6.30
26 | CCN(C(=O)c1cc2cc(C#N)ccc2[nH]1)[C@H]1CCC[C@@H](NCc2oc3ccccc3c2C)C1 [Compound 535] | > 7.00
27 | CCN(C(=O)c1cc2cnccc2[nH]1)[C@H]1CCC[C@@H](NCc2ccccc2)C1 [Compound 401] | 6.30 to 7.00
28 | CCN(C(=O)c1cc2ccccc2[nH]1)[C@H]1CCC[C@H](NC2(c3ccccc3)CC2)C1 [Compound 421] | < 5.70
29 | CCN(C(=O)c1cc2ccccc2[nH]1)[C@H]1CCC[C@@H](NCc2ccc(OC(F)(F)F)cc2)C1 [Compound 429] | > 7.00
30 | CCN(C(=O)c1cc2ccccc2[nH]1)[C@H]1CCC[C@H](NCc2ccccc2)C1 [Compound 102] | 5.70 to 6.30
31 | CCN(C(=O)c1cc2cc(OC(F)(F)F)ccc2[nH]1)[C@H]1CCC[C@@H](NCc2ccccc2)C1 [Compound 542, N-((1S,3R)-3-(benzylamino)cyclohexyl)-N-ethyl-5-(trifluoromethoxy)-1H-indole-2-carboxamide] | > 7.00
32 | CCN(C(=O)c1cc2ccccc2[nH]1)[C@@H]1C[C@@H](NCc2ccccc2)CS(=O)(=O)C1 [Compound 314, N-((3R,5R)-5-(benzylamino)-1,1-dioxidotetrahydro-2H-thiopyran-3-yl)-N-ethyl-1H-indole-2-carboxamide] | < 5.70
33 | CCN(C(=O)c1cc2ccccc2[nH]1)[C@H]1CCC[C@@H](NCc2cc3cc(F)ccc3o2)C1 [Compound 433] | > 7.00
34 | CCN(C(=O)c1cc2ncccc2[nH]1)[C@H]1CCC[C@@H](NCc2ccc(F)cc2)C1 [Compound 152] | > 7.00
35 | CCN(C(=O)c1cc2ccccc2[nH]1)[C@H]1CCC[C@@H](NCc2cc3ccccc3s2)C1 [Compound 450] | > 7.00
36 | CCN(C(=O)c1cc2ccccc2[nH]1)[C@H]1CCC[C@H](NCc2cccnc2)C1 [Compound 109] | 5.70 to 6.30
37 | C#CCOc1cccc(CN[C@@H]2CCC[C@H](N(CC)C(=O)c3nc4c(N)cccc4[nH]3)C2)c1 [Compound 568] | > 7.00
38 | CCN(C(=O)c1cc2ccccc2[nH]1)[C@H]1CCC[C@@H](NC(=O)c2ccccc2)C1 [Compound 200, N-((1S,3R)-3-benzamidocyclohexyl)-N-ethyl-1H-indole-2-carboxamide] | < 5.70
39 | CCN(C(=O)c1cc2ncccc2[nH]1)[C@H]1CCC[C@H](NC(C)(C)c2ccccc2)C1 [Compound 411] | > 7.00
40 | CCN(C(=O)c1cc2ccccc2[nH]1)[C@H]1CCC[C@@H](NCc2nnc(C3CC3)s2)C1 [Compound 467, N-((1S,3R)-3-(((5-cyclopropyl-1,3,4-thiadiazol-2-yl)methyl)amino)cyclohexyl)-N-ethyl-1H-indole-2-carboxamide] | > 7.00
41 | CCN(C(=O)c1cc2ccccc2[nH]1)[C@H]1CCC[C@@H](NCc2ncccn2)C1 [Compound 136] | 6.30 to 7.00
42 | CCN(C(=O)c1nc2ccccc2[nH]1)[C@H]1CCC[C@@H](NCc2nnc(C3CC3)o2)C1 [Compound 513, N-((1S,3R)-3-(((5-cyclopropyl-1,3,4-oxadiazol-2-yl)methyl)amino)cyclohexyl)-N-ethyl-1H-benzo[d]imidazole-2-carboxamide] | 6.30 to 7.00
43 | O=C(c1cc2ccccc2[nH]1)N(CC(F)(F)F)[C@H]1CCC[C@@H](NCc2ccccc2)C1 [Compound 179] | > 7.00
